Series [1] concerns the target T1, ABCB1 transporter (P-gp/MDR1) (Homo sapiens, UniProt P08183). The series is described as follows: vanadate-sensitive ATPase assay in ABCB1-overexpressing membranes; supported by [3H]-paclitaxel efflux inhibition in KB-C2 cells. The format is biochemical. On the set-up: cell membranes that overexpressed ABCB1.
The target of series [2] is T1, ABCB1 transporter (P-gp/MDR1).

Structures are written as SMILES.

T1 sequence (P08183 whole entry): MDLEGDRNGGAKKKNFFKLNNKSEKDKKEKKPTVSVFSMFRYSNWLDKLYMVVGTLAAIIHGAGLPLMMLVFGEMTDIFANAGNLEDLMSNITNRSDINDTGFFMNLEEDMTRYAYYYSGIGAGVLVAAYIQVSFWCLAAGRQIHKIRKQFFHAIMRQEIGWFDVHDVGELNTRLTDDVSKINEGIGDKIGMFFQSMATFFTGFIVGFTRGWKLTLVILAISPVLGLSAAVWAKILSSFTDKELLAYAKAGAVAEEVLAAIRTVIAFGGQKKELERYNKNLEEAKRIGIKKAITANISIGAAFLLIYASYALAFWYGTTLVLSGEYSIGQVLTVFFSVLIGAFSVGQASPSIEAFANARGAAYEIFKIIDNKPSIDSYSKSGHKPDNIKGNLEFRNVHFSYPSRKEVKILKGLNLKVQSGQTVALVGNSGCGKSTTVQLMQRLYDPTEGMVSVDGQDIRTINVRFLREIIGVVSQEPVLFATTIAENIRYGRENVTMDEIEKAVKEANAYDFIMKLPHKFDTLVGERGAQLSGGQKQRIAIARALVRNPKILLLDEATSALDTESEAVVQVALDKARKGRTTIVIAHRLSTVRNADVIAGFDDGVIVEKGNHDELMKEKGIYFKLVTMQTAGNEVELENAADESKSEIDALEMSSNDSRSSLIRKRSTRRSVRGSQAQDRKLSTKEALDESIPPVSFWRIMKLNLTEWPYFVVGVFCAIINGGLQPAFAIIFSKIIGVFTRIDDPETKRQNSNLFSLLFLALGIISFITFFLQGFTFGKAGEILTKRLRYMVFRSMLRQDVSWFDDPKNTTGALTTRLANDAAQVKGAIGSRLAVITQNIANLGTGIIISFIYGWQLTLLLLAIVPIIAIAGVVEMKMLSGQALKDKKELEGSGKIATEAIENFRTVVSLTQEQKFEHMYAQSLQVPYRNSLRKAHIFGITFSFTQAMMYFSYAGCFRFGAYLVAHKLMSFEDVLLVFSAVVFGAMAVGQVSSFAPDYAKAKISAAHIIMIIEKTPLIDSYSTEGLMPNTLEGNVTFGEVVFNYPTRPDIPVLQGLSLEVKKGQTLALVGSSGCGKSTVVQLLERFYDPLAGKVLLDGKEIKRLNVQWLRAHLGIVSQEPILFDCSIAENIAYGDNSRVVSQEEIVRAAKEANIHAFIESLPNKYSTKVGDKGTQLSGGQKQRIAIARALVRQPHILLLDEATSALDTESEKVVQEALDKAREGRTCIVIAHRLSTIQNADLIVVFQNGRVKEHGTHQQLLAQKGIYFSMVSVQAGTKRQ

For orientation: IC50 means the concentration that gives 50% inhibition. Low readings indicate greater potency, high ones weaker potency. In the case of `CO[C@@H]1[C@H](N(C)C(=O)c2ccccc2)C[C@H]2O[C@]1(C)n1c3ccccc3c3c4c(c5c6ccccc6n2c5c31)C(=O)NC4` [midostaurin], the IC50 in series [1] is 3.1 µM.

Turning to `CC(=O)O[C@H]1C(=O)[C@@]2(C)[C@H]([C@H](OC(=O)c3ccccc3)[C@]3(O)C[C@H](OC(=O)[C@H](O)[C@@H](NC(=O)c4ccccc4)c4ccccc4)C(C)=C1C3(C)C)[C@]1(OC(C)=O)CO[C@@H]1C[C@@H]2O` [paclitaxel], in series [2], the “[3H]-paclitaxel accumulation and efflux in KB-C2 versus parental KB-3-1 cells” value was “midostaurin significantly decreased the efflux level of [^3H]-paclitaxel in ABCB1-overexpressing KB-C2 cells in a dose-dependent manner”.

The record behind these values is PMC6591272, “Midostaurin Reverses ABCB1-Mediated Multidrug Resistance, an in vitro Study” (Frontiers in Oncology, 2019).
